Patent publication US6849607B2, “Galectin recognized photosensitizers for photodynamic therapy” (Health Research, Inc., priority 2001, dated 2005)

Legend:
[1] = system: radiation induced fibrosarcoma (RIF) tumor cell; assay: In vitro photosensitizing activity in RIF tumor cells (MTT); type: cell-based; conditions: 2.0 μM, light dose of 4 J/cm2
Experimental: Both cell lines are known to have some expression for Galectin-1 (Sacchettini, J. C., Baum, L. G. and Brewer, C. F., Multivalent Protein-carbohydrate Interactions. A New Paradiagm for Super Molecular Assembly and Signal Transduction, Biochemistry, 40:3009-3015, 2001). The Molt-4 cells were grown in RPMI 1640 5% FCS (Fetal calf serum) in 100% humidity with 5% CO2. Cells were transferred to phenol red free (PRF) RPMI 1640 media with 1% FCS and plated at 2.5×10^4 cells/well. After 3 hours incubation in the dark, the cells were washed once with PBS and re-suspended in prf RPMI 1640 with 1% FCS. These cells were then illuminated with a 1000W Quartz Halogen Lamp with IR and bandpass dichroic filters to allow light between 400 nm-700 nm, at a dose rate of 16 mW/cm^2 at 695 nm. The RIF tumor cells were grown in alpha-DMEM with 10% fetal calf serum, penicillin and streptomycin. Cells were maintained in 5% CO2, 95% air and 100% humidity. For determining the PDT efficacy, these cells were plated in 96-well plates and a density of 1×10^4 cells well in complete media. After overnight incubation to allow the cells to attach the photosensitizers 14 were individually added at variable concentrations. After a 3 hr incubation in the dark at 37° C., the cells were washed once with PBS, then irradiated with the same light source as above (Molt-4 procedure), and the optimal cell kill was obtained at a concentration of 1.0 μM. After PDT the cells were washed once and placed in complete media and incubated for 48 hrs. […] The 96-well plate was read on a microtiter plate reader (Miles Inc. Titertek Multiscan Plus MK II) at an absorbance of 560 nm. […]

[2] = system: Molt-4 human leukemic T-cells; assay: In vitro photosensitizing efficacy in Molt-4 cells (MTT); type: cell-based; conditions: for effect of the free saccharide on PDT activity of the conjugate: Molt-4 cells incubated with galactose or lactose at various concentrations (0-100 μM)
Experimental: Both cell lines are known to have some expression for Galectin-1 ([…]., Baum, L. G. and Brewer, C. F., Multivalent Protein-carbohydrate Interactions. A New […] for Super Molecular Assembly and Signal Transduction, Biochemistry, 40:3009-3015, 2001). The Molt-4 cells were grown in RPMI 1640 5% FCS (Fetal calf serum) in 100% humidity with 5% CO2. Cells were transferred to phenol red free (PRF) RPMI 1640 media with 1% FCS and plated at 2.5×10^4 cells/well. After 3 hours incubation in the dark, the cells were washed once with PBS and re-suspended in prf RPMI 1640 with 1% FCS. These cells were then illuminated with a […] Quartz Halogen Lamp with IR and bandpass dichroic filters to allow light between 400 nm-700 nm, at a dose rate of 16 mW/cm^2 at 695 nm. The RIF tumor cells were grown in alpha-DMEM with 10% fetal calf serum, penicillin and streptomycin. Cells were maintained in 5% CO2, 95% air and 100% humidity. […] After overnight incubation to allow the cells to attach the photosensitizers 14 were individually added at variable concentrations. After a 3 hr incubation in the dark at 37° C., the cells were washed once with PBS, then irradiated with the same light source as above (Molt-4 procedure), and the optimal cell kill was obtained at a concentration of 1.0 μM. After PDT the cells were washed once and placed in complete media and incubated for 48 hrs. […] Louis, Mo.) was added to each well (Kessel, D., Luo, Y., Photodynamic Therapy: A Mitochondrial Inducer of Apoptosis, Cell Death Differ. 6:28-35, 1999; MacDonald, I., Morgan, […]., Litchfield, D. J. Dougherty, T. J., Subcellular Localization Patterns and their Relationship to Photodynamic Activity of Pyropheophorbide-a Derivatives, Photochem. Photobiol., 70, 789-997, 1999). After 4 hr incubation at 37° C. the MTT+media were removed and 100 μl DMSO was added to solubilize the formazin crystals. The 96-well plate was read on a microtiter plate reader (Miles Inc. Titertek Multiscan Plus MK II) at an absorbance of 560 nm. The results were plotted as percent survival of the corresponding dark (drug no light) control for each compound tested. Each data point represents the mean from 3 separate experiments, and the error bars are the standard deviation. Each experiment was done with 5 replicate wells. […] The cells were then washed once with phosphate buffer saline (PBS), carbohydrate conjugates were then added, and the cells were again incubated for an additional 3 hrs. After treating with light, the cells were re-suspended in fresh media and incubated for 48 hrs. MTT was added to the cells and incubated for an additional 4 hrs. Dimethylsulfoxide (100 μl) was then added to each well to dissolve the formazin crystals. The plates were read on a 96 well plate reader at an absorbance of 560 nm. The data are in replicates of 6 wells and are normalized to control cells (light, no drug). In another set of experiments, a similar procedure was followed, except, the cells were not washed before the light treatment. […] Louis, Mo.) was added to the cells and incubated for an additional 4 hrs. Dimethylsulfoxide (100 μl) was then added to each well to dissolve the formazin crystals. The plates were read on a 96 well plate reader (Miles Inc. Titertek Multiscan Plus MK II) at an absorbance of 560 nm. The data are in replicates of 6 wells and are normalized to control cells (light, no drug).

Gal-1 = Gal-1 (Homo sapiens, UniProt P09382); assay: Gal-1 inhibition binding, indirect ELISA (Gal-1-HRP conjugate on asialofetuin-coated wells)
Sequence of Gal-1 (P09382 whole entry): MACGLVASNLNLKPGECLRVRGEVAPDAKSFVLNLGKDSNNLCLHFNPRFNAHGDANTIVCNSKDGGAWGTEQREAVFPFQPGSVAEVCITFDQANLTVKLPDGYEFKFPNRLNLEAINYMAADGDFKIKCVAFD
Experimental: Cell. Biochem., 43, 43-57, 1990) to eliminate the thiol requirement for retention of carbohydrate-binding activity. Coupling of alkylated galaptin to Horseradish peroxidase (HRP) was carried out by a two-step glutaraldehyde procedure as described by Engvall (Engvall E., Enzyme Immunoassay ELISA and EMIT, Methods in Enzymology, 70, 419-439, 1980). The galactin-peroxidase conjugate was prepared in 50% glycerol-1% BSA and stored at -20° C. until use. The binding of the Gal-1 to photosensitizers with and without the galactose moiety was measured by an indirect ELISA method as described by Chen et al. […] The microtiter wells (Dynatech Laboratories, Chantilly, Va.) were coated with 2 μg asial fetuin (Sigma) in 100 μl of 0.1M sodium carbonate, 0.2% NaN3, pH 9.6 at 37° C. for 3h. The plates were tightly covered with parafilm and stored at 4° C. for use within three weeks. The optimal dilution for Gal-1HRP conjugate was determined by checker-board titration. For studying the effect of saccharides and their conjugates, 60 μl aliquots of diluted Gal-1-HRP conjugate containing 1.4 μg of Gal-1 were mixed separately in duplicate with 60 μl dilute buffer as well as serially diluted test compounds and incubated for 1 h at 37° C. A 100 μl aliquot was transferred to the microtiter wells, which had been coated with […] Fetuin, blocked and washed. The plates were then incubated for 1 h at 37° C. followed by color development with ABTS (Kirkegaard & Perry lab. Gaithersburg, Md.) and reading at 405 nm on an ELISA reader.

| IC50 (Gal-1; ELISA, read-out: I50, inhibition of Gal-1 binding) [µM] | inhibition at 450 µM (Gal-1; at 450 μM) [%] | inhibition of Gal-1 binding (Gal-1; at 450 μM) [%] | SMILES | cell kill [1] [%] | in vitro photosensitizing efficacy (in words) ([2]; Molt-4 cells, 2.0 μM, 2a, 3a compared to 1a, 4a compared to 2a and 3a) | effect of free lactose on PDT efficacy of the photosensitizer ([2]; Molt-4 cells, photosensitizer with lactose in a ratio of 1:100, without washing) | effect of the free saccharide on PDT activity of the conjugate [2] |
| --- | --- | --- | --- | --- | --- | --- | --- |
| 114 |  |  | C=C(C=CCO[C@@H]1O[C@H](CO)[C@H](O)[C@H](O)[C@H]1O)CN1C(=O)c2c3nc(cc4[nH]c(cc5nc(cc6[nH]c2c(c6C)C1=O)C(CC)=C5C)c(CC)c4C)C(C)C3CCC(=O)OC (mixture of isomers) [2a, Galactose-Chlorin conjugate Joined with diene linkage] | 100 | significant increases in photosensitizing efficacy | complete inhibition in PDT efficacy |  |
|  | 3 | 3.29 | O=C[C@H](O)[C@@H](O)[C@@H](O)[C@H](O)CO [galactose, reference compound] |  |  |  | did not result in any inhibition in PDT activity |
|  |  |  | OC[C@H]1O[C@@H](O[C@H]2[C@H](O)[C@@H](O)C(O)O[C@@H]2CO)[C@H](O)[C@@H](O)[C@H]1O (some centres unmarked) [lactose, reference compound] |  |  |  | significant decrease in photosensitizing efficacy |
